Reference: ChEMBL document CHEMBL1201862, “PubChem BioAssay data set” (2004)
Calls of active or inactive are those of the source. *1 amine or outer side, *2 acyl side, *3 side chain or, on linkers, in order; H or OH if unused. Where a SMILES comes first, the peptide text is derived from it. Bridges are numbered along the chain shown (N, C = ends). [ ]: non-standard residue; d: D form. The star is where a group is joined. X56 = CC(C)C(C)C(C(=O)[*:2])N(C)[*:1]; Picolinoyl(3-OH) = O=C(c1ncccc1O)*; NMePhg = CN[CH](C(=O)O)c1ccccc1; Hyp = O=C(O)[CH]1C[CH](O)CN1; Sar = CNCC(=O)O

Assays:
[1] = target: Luciferin 4-monooxygenase (Photinus pyralis, UniProt P08659); assay: inhibition of purified Photinus pyralis luciferase – biochemical, luminescence, dose response (AID 1891)
Luciferin 4-monooxygenase, sequence (P08659 whole entry): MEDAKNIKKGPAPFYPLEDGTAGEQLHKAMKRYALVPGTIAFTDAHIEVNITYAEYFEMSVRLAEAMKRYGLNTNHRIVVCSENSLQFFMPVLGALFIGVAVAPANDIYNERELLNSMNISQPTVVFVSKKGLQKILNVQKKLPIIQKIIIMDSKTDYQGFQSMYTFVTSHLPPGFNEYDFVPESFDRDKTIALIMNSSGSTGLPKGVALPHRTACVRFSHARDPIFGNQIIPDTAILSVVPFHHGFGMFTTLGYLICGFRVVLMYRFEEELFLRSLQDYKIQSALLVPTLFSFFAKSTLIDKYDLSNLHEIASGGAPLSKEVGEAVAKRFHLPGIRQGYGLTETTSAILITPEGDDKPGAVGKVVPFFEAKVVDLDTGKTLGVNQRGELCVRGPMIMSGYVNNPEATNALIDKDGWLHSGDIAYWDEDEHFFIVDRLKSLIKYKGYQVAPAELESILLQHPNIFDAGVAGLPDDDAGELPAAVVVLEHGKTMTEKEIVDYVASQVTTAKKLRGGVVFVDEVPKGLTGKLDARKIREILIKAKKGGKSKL

[2] = Luminescence Cell-Based Dose Confirmation HTS to Identify Inhibitors of Platelet Dense Granule Release. [Related pubchem assays: 1663 (Primary HTS), 1678 (Summary of Project)]; assay type: functional
[3] = target: T1, Polyadenylate-binding protein 1 (Homo sapiens, UniProt P11940); assay: MLLE binding blockers, Cy5 peptide tracer – biochemical, fluorescence polarization, Cy5-PAM2 peptide, secondary, miRNA deadenylation inhibitor project, dose response (AID 602260); assay type: functional; settings: read-out: IC50_Mean
T1 sequence (P11940 whole entry, the tested form may be a part): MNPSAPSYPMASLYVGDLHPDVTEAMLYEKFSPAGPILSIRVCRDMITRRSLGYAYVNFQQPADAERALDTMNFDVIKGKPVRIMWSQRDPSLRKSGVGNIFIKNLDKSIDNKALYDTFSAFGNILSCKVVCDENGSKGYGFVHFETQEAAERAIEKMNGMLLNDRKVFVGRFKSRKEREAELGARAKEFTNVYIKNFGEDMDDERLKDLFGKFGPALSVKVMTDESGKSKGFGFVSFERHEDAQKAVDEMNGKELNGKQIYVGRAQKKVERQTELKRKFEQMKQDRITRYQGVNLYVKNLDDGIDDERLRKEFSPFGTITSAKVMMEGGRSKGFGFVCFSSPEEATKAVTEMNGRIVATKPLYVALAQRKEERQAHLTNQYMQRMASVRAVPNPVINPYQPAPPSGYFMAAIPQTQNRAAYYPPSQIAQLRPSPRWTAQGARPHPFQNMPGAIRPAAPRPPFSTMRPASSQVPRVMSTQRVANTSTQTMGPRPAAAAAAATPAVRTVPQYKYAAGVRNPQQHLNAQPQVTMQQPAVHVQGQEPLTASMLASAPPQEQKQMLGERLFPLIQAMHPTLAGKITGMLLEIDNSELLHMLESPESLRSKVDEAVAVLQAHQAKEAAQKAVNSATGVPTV

[4] = target: T1, Polyadenylate-binding protein 1; assay: MLLE domain peptide-binding blockers, IC50 – biochemical, fluorescence polarization, FITC-PAM2 peptide, dose response (AID 602259); assay type: functional; settings: read-out: IC50_Mean
[5] = target: T2, Ubiquitin-conjugating enzyme E2 N (Homo sapiens, UniProt P61088); assay type: functional;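 note: Dose-response confirmation in a TR-FRET assay detecting UBC13-driven polyubiquitin chain formation, inhibition measured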
T2 sequence (P61088 whole entry): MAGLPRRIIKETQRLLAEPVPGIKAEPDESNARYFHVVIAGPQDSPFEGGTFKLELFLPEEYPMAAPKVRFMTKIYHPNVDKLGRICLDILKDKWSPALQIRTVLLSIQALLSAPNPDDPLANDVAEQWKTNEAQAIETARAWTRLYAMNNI

[6] = NIH-3T3 fibroblast cytotoxicity, dose response, cytotoxicity control, cell-based, fluorescence, Alamar Blue, secondary assay (AID 2327); assay type: functional;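 note: NIH-3T3 mouse fibroblasts cultured with fluconazole at 8 µg/mL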
[7] = viability of uninfected HEp-2 cells – cell-based, HTS, cytotoxicity control for RSV inhibitor project, dose response (AID 2410); assay type: functional; settings: human respiratory syncytial virus
[8] = fluconazole-exposed Candida albicans growth modulators – fluorescence, retest, confirmation (AID 2467); assay type: functional, cell-based
[9] = tested on: P388/ADR; assay: cells; assay type: functional; settings: Mus musculus
[10] = tested on: SN12K1; assay: cells; assay type: functional; settings: Homo sapiens
[11] = tested on: P388; assay: cells; assay type: functional; settings: Mus musculus
[12] = tested on: H9c2; assay: cells; assay type: functional, cell-based; settings: Rattus norvegicus, H9c2, Myocardium;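 note: confirmatory concentration-response retest of ultra-high-throughput screening hits for modulation of myocardial damage; cell death induced by hydrogen peroxide oxidative stress; compound pretreatment for 60 min then peroxide exposure for 2 h; potency is for protecting the cells against peroxide damage rather than for killing them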
[13] = target: T3, Corticotropin-releasing factor receptor 2/Corticotropin-releasing factor-binding protein (Homo sapiens, UniProt P24387+Q13324); assay: activators of CRF receptor 2 with binding protein – uHTS hits, confirmation (AID 602473); assay type: functional; settings: read-out: EC50_Mean
T3 sequence (Q13324 whole entry): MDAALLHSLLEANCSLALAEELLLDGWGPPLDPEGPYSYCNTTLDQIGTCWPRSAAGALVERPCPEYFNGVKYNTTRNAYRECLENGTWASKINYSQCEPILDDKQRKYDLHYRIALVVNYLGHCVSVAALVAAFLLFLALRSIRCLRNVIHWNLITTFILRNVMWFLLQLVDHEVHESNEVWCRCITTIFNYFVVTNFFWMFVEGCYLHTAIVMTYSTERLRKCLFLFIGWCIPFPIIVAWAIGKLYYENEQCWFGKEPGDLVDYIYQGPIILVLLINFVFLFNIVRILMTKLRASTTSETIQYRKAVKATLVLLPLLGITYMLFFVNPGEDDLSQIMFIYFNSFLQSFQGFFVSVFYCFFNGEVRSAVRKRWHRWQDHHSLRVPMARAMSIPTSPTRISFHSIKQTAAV
T3 sequence (P24387 whole entry): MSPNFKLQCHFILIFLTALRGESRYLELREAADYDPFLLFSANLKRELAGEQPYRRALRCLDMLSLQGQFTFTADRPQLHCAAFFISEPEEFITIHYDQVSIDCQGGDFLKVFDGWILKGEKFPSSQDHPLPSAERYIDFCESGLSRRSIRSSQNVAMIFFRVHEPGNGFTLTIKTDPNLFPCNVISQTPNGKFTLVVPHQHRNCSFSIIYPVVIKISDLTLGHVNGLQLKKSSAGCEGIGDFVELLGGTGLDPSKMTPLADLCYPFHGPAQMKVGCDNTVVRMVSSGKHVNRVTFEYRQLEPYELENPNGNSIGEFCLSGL

[14] = target: FAD-linked sulfhydryl oxidase ALR (Homo sapiens, UniProt P55789); assay: ALR-catalysed DTT oxidation blockers – biochemical, H2O2 detection, luminescence, cherry-pick, dose response (AID 493248)
FAD-linked sulfhydryl oxidase ALR, sequence (P55789 whole entry): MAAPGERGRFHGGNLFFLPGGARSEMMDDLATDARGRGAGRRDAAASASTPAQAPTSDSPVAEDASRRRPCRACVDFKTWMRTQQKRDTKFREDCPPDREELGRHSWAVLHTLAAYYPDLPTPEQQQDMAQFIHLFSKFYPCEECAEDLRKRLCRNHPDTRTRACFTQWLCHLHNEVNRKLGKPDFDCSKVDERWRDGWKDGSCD

[15] = Luminescence Cell-Based Dose Retest to Confirm Inhibitors of Cancer Stem Cells. [Related pubchem assays (depositor defined):AID2717, AID2721]; assay type: functional; settings: Homo sapiens
[16] = target: Nonstructural protein 1 (Influenza A virus, UniProt Q194T2); assay type: functional, Influenza A virus (A/California/07/2009(H1N1))
Nonstructural protein 1, sequence (Q194T2 whole entry): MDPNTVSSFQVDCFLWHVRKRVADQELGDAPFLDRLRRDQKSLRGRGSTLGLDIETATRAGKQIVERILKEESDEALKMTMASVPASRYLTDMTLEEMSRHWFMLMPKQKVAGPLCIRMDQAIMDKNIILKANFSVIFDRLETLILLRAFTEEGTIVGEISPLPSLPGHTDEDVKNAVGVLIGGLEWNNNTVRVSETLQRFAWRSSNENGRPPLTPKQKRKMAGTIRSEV

[17] = cells; assay type: functional, cell-based
[18] = cells; assay type: functional, cell-based; remark: listed apart in the source
[19] = target: Large T antigen (Simian virus 40, UniProt P03070); assay type: functional, Betapolyomavirus macacae;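 note: Confirmatory-stage PubChem screen for compounds that inhibit SV40 T antigen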
Large T antigen, sequence (P03070 whole entry): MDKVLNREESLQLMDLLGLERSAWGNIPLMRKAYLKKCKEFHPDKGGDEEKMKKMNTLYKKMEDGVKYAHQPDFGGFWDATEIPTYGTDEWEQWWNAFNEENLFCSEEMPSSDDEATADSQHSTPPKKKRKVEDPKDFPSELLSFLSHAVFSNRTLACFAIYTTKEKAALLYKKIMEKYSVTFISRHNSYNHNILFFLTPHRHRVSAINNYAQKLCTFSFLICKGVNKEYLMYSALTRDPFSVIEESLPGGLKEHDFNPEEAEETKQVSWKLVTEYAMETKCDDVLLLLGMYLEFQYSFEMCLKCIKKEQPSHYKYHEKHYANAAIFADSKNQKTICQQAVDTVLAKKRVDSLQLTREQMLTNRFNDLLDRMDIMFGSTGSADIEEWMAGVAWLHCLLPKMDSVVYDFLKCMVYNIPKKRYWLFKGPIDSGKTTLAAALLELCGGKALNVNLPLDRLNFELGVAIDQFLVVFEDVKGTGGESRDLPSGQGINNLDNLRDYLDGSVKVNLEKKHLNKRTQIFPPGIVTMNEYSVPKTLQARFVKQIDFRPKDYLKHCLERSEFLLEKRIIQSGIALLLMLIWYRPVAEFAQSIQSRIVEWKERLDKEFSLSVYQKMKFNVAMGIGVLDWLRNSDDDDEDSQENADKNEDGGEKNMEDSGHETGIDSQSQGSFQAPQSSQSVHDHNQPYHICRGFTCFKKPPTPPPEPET

| SMILES | GI50 [9] | GI50 [10] | GI50 [11] | other results |
| --- | --- | --- | --- | --- |
| O=C(CSc1nc(-c2ccccc2)cs1)NCc1ccco1 | – | – | – | EC50 [1]: > 112 µM (not active); EC50 [2]: > 112 µM (not active) |
| COc1ccc(NC(=O)CCS(=O)(=O)c2ccc3nc(C)sc3c2)cc1OC | – | – | – | EC50 [1]: > 112 µM (not active); EC50 [2]: > 112 µM (not active) |
| CCC(C)N(C(=O)CSc1ccc(NC(C)=O)cc1)C1CCS(=O)(=O)C1 (stereo not given) | – | – | – | IC50 [3]: > 66 µM (inactive); IC50 [4]: > 66 µM (inactive) |
| COC(=O)c1sccc1NC(=O)Nc1ccc(F)cc1 | – | – | – | EC50 [1]: 0.535 µM (active); EC50 [2]: 1.67 µM (active) |
| COc1cc(C(=O)Nc2nc3ccc(S(C)(=O)=O)cc3s2)cc(OC)c1C | – | – | – | IC50 [5]: > 20 µM (inactive) |
| Cc1cc(OC(=O)c2ccco2)c2c3c(c(=O)oc2c1)CCCC3 | – | – | – | EC50 [6]: > 160 µM (inactive); CC50 [7]: 33.1 µM (active); EC50 [8]: 5.16 µM (active) |
| CCc1ccc(C(=O)Nn2c(C)nc3ccccc3c2=O)cc1 | – | – | – | IC50 [5]: > 20 µM (inactive) |
| COc1ccc2[nH]cc(/C=C(/C)c3ccncc3)c2c1 | 2.99 µM (inactive) | 16 µM (inactive) | 3.07 µM (inactive) | – |
| COC1/C=C\C=C(/C)C(=O)NC2=CC(=O)C=C(C2=O)C(OC)C(C)CC(OC)C(OC)C(C)/C=C(/C)C1OC(N)=O (stereo not given) | 1.29 µM (inactive) | 1.69 µM (inactive) | 0.0166 µM (active) | – |
| COc1ccc(C2C3CCCC(C3=O)C(c3ccc(OC)cc3)N2N=O)cc1 (stereo not given) | 17.9 µM (inactive) | 30.5 µM (inactive) | 19.9 µM (inactive) | – |
| CSCC[C@@H]1C(=O)N(C)[C@H](C(C)(C)C)N1C(=O)c1ccccc1 | – | > 100 µM (inactive) | > 100 µM (inactive) | – |
| CCCSCC(P(=O)(O)O)P(=O)(O)O.NC1CCCCC1 | > 100 µM (inactive) | > 100 µM (inactive) | > 100 µM (inactive) | – |
| COC(=O)c1c(C)[nH]c(O)c1/C=N/c1ccc(Oc2ccccc2)cc1 | – | – | – | IC50 [12]: > 79 µM (inactive); EC50 [13]: > 53 µM (inactive) |
| CCOC(=O)C(CC(C)C)NC(=O)C(Cc1ccc(N(CCCl)CCCl)cc1)NC(C)=O (stereo not given) | 1.91 µM (inactive) | 2.2 µM (inactive) | 1.93 µM (inactive) | – |
| CCCCC#CS(=O)(=O)C(F)(F)F | 27.7 µM (inactive) | 51.9 µM (inactive) | 19.7 µM (inactive) | – |
| N#C/C(=C\c1ccc(O)cc1)C(N)=O | > 100 µM (inactive) | > 100 µM (inactive) | > 100 µM (inactive) | – |
| CN(C)c1ccc(/C=N/NC(=O)c2ccn(C)n2)cc1 | – | – | – | AC50 [14]: 25.6 µM (active) |
| COc1ccc(Cc2nnc(N/N=C/c3ccc(O)cc3O)nc2O)cc1OC | – | – | – | AC50 [15]: 8.28 µM (active); IC50 [16]: 1.78 µM (active) |
| CC1(C)CC(=O)C(/C=N/CCN2CCN(C(=S)Nc3cccc(Cl)c3)CC2)=C(O)C1 | – | – | – | EC50 [17]: > 350 µM (not active); EC50 [18]: > 350 µM (not active) |
| O=C(N/N=C/c1ccc(O)c(O)c1)C1CC1 | – | – | – | IC50 [19]: 5.55 µM (active); AC50 [14]: 0.127 µM (active) |
| Cc1nc(C#N)c(N/N=C/c2c(F)cccc2Cl)o1 | – | – | – | AC50 [14]: 2.54 µM (active) |
| Cc1cc(C)cc(NC2=C(N)C(=O)c3ccccc3C2=O)c1 | – | – | – | IC50 [16]: 37.3 µM (active) |
| CC(C)CC1NC(=O)C(NC(=O)c2ncccc2O)C(C)OC(=O)C(c2ccccc2)N(C)C(=O)C(C)NC(=O)C(C(C)C(C)C)N(C)C(=O)CN(C)C(=O)C2CC(O)CN2C1=O (stereo not given) ({Picolinoyl(3-OH)}-TL[Hyp][Sar][X56]A[NMePhg]; ester 1-C; configuration not given here) | > 109 µM (inactive) | 51.3 µM (inactive) | 6.21 µM (inactive) | – |
